{"source": "patent US20100129515A1", "about": "“FLAVOUR MODULATING SUBSTANCES” (QUEST INTERNATIONAL SERVICES B.V., priority 2005, published 2010)", "key": {"[1]": {"assay": "Taste of solutions in water (Example 7)", "type": "in vivo"}, "[2]": {"conditions": "cited from earlier work; for taste: as a dry powder and as an alcoholic or aqueous solution; for pungency: compared with capsaicin"}, "[3]": {"assay": "Tasting of 0.6% sodium chloride / 0.03% mono sodium glutamate solution by trained flavourist panel (Example 3)", "type": "in vivo", "conditions": "10 ppm in 0.6% sodium chloride, compared with solution A without substance", "protocol": "2 solutions were prepared containing respectively:\n0.03% mono sodium glutamate\n10 ppm N-vanillyl urea as described in example 1\nBoth solutions were tasted by a trained flavourist panel, which described the solutions as follows: […]"}, "[4]": {"assay": "Tasting of 5% (w/w) ethanol solutions by trained flavourist panel (Example 2)", "type": "in vivo", "conditions": "reference 5% (w/w) alcoholic solution", "protocol": "The solid product obtained in example 1 was dissolved in ethanol/water (1:1, w/w) to prepare a 1000 ppm stock solution.\nThe following 3 alcoholic solutions are prepared: A: 1 ppm N-vanillyl urea as obtained in example 1\nB: 10 ppm N-vanillyl urea as obtained in example 1\nC: 100 ppm N-vanillyl urea as obtained in example 1\nAll solutions were tasted by a trained flavourist panel and compared to a 5% (w/w) alcoholic solution (the reference)."}, "[5]": {"assay": "Tasting of 10 ppm menthol solution by trained flavourist panel (Example 4)", "type": "in vivo", "conditions": "1 ppm added to 10 ppm menthol solution; compared to the base", "protocol": "1 ppm N-vanillyl urea as described in example 1 was added to a 10 ppm menthol solution and compared to the base. Both solutions were tasted by a trained flavourist panel, which described the solutions as follows: […]"}, "[6]": {"assay": "Tasting of 0.6% NaCl / 0.03% MSG / 4 ppm pepper oleoresin solutions by professional panel (Example 11)", "type": "in vivo", "protocol": "Three solutions of 0.6% NaCl and 0.03% MSG and 4 ppm pepper oleoresin (ex Warner Jenkinson, St Louis, USA) were prepared.\nTo a first solution (sample A), 1 ppm N-vanillyl-N′-octyl urea was added To a second solution (sample B), 2 ppm N-vanillyl-N′-octyl thiourea was added.\n(§1) Samples A and B and the reference sample were tasted by a professional panel."}, "[7]": {"assay": "Tasting of 0.6% NaCl / 0.03% MSG solutions by professional panel (Examples 9 and 10)", "type": "in vivo", "protocol": "Three solutions of 0.6% NaCl and 0.03% MSG were prepared.\nTo a first solution (sample A), 0.1 ppm N-vanillyl-N′-octyl urea was added To a second solution (sample B) 0.2 ppm N-vanillyl-N′-octyl thiourea was added.\nas §1\nTo a first solution (sample A), 5 ppm N-vanillyl-N′-octyl urea was added To a second solution (sample B), 10 ppm N-vanillyl-N′-octyl thiourea was added."}, "[8]": {"assay": "Tasting of fondant with 2500 ppm menthol by professional panel (Example 8)", "type": "in vivo", "protocol": "Three samples of fondant were prepared by mixing 65% Fondacreme (ex Belgosuc NV Belgium) with 35% sugar syrup (67° Brix). 2500 Ppm menthol was added as a 50% solution in propylene glycol.\nTo a first sample (sample A), 0.1 ppm N-vanillyl-N′-octyl urea was added To a second sample (sample B), 0.2 ppm N-vanillyl-N′-octyl thiourea was added. Samples A, B and the reference sample were tasted by a professional panel. […] The cooling was perceived more through the whole oral cavity."}, "[9]": {"assay": "Tasting of toothpaste by professional panel (Example 13)", "type": "in vivo", "protocol": "97 g of a toothpaste base was prepared as follows: 13.8 ml demineralised water, 0.1 g trisodium phosphate (12H2O) and 0.8 g sodium monofluorophosphate were weighed and mixed until clear. 50.0 g of sorbitol was added and the blend was mixed again. The obtained mixture was placed in a Fryma pot. A poly bag was placed in a suitable container and 8.0 g of precipitated silica AC30, 9.0 g of precipitated silica TC15, 0.8 g of sodium carboxymethylcellulose (SCMC 9M31XF) and 1.0 g of a colorant (Tiona (1700)) were weighed and placed in the bag in the order listed. The top of the bag was secured with a tag and the contents were thoroughly mixed to distribute the gum throughout the mixture.\nThis mixture was added to the Fryma pot. Then 7.0 ml of demineralised water, 1.5 g of sodium lauryl sulphate (Empicol LXV100C) and 5.0 g of PEG 1500 were placed in a beaker and heated to 45° C. and mixed with a Turrax to disperse the ingredients. The dispersion was placed on a magnetic stirrer until clear (while covered with cling film) and was subsequently added to the Fryma pot.\nTo this base toothpaste 0.8 g of a 25% saccharin soln was added. Part of the base toothpaste was then intensively mixed with N-vanillyl-N′-octyl urea (as obtained in Example 4) to obtain a 0.1 ppm concentration of N-vanillyl-N′-octyl urea (sample A). […]"}}}
{"compound": "COc1cc(CNC(N)=S)ccc1O", "note": "[N-vanillyl thiourea]", "values": [{"measurement": "taste of solution in water", "setting": "[1]; 25 ppm in water", "result": "tingling, burning and slightly bitter taste and a weak vanillin-like flavour sensation"}, {"measurement": "taste", "setting": "[2]", "result": "tasteless"}]}
{"compound": "COc1cc(CNC(N)=O)ccc1O", "note": "[N-vanillyl urea]", "values": [{"measurement": "taste description", "setting": "[3]", "result": "more salty, umami, warm, bite, preferred to A"}, {"measurement": "taste of solution in water", "setting": "[1]; 50 ppm in water", "result": "slightly tingling taste and a weak vanillin-like flavour sensation"}, {"measurement": "taste compared to the reference", "setting": "[4]; 1 ppm in 5% (w/w) ethanol", "result": "more alcohol-like bite than the reference"}, {"measurement": "taste compared to the reference", "setting": "[4]; 10 ppm in 5% (w/w) ethanol", "result": "stronger hot, sharp and pungent, ethanol-like taste compared to the reference solution"}, {"measurement": "taste compared to the reference", "setting": "[4]; 100 ppm in 5% (w/w) ethanol", "result": "stronger hot, sharp and pungent, ethanol-like taste compared to the reference solution"}, {"measurement": "taste description", "setting": "[5]", "result": "powerful and full cooling sensation, preferred to the base"}, {"measurement": "taste", "setting": "[2]", "result": "tasteless"}]}
{"compound": "CCCCCCCCNC(=S)NCc1ccc(O)c(OC)c1", "note": "[N-vanillyl-N′-octyl thiourea]", "values": [{"measurement": "hotness and overall impression compared to the reference sample", "setting": "[6]; 2 ppm in 0.6% NaCl, relative to sample A", "result": "the same effects but slightly weaker"}, {"measurement": "salt effects compared to the reference sample", "setting": "[7]; 0.2 ppm in 0.6% NaCl, relative to sample A", "result": "the same effects but slightly weaker"}, {"measurement": "salt and hotness effects compared to the reference sample", "setting": "[7]; 10 ppm in 0.6% NaCl, relative to sample A", "result": "the same effects but slightly weaker"}, {"measurement": "cooling effect compared to the reference sample", "setting": "[8]; 0.2 ppm in fondant with 2500 ppm menthol, relative to sample A", "result": "the same effects but slightly weaker"}]}
{"compound": "CCCCCCCCNC(=O)NCc1ccc(O)c(OC)c1", "note": "[N-vanillyl-N′-octyl urea, N-octyl-N′-vanillyl urea]", "values": [{"measurement": "hotness and overall impression compared to the reference sample", "setting": "[6]; 1 ppm in 0.6% NaCl", "result": "clearly more hot than the reference sample and the overall impression is much stronger"}, {"measurement": "cooling effect compared with the base toothpaste", "setting": "[9]; 0.1 ppm in toothpaste", "result": "more aggressive cooling and more cooling volume in the oral cavity than the base"}, {"measurement": "onset of salt impression compared to the reference", "setting": "[7]; 0.1 ppm in 0.6% NaCl", "result": "came faster than in the reference"}, {"measurement": "saltiness compared to the reference sample", "setting": "[7]; 0.1 ppm in 0.6% NaCl", "result": "more salty compared to the reference sample"}, {"measurement": "duration of hotness", "setting": "[7]; 5 ppm in 0.6% NaCl", "result": "up to 10 minutes"}, {"measurement": "onset of salt impression compared to the reference sample", "setting": "[7]; 5 ppm in 0.6% NaCl", "result": "came faster than in the reference sample"}, {"measurement": "saltiness and hotness compared to the reference sample", "setting": "[7]; 5 ppm in 0.6% NaCl", "result": "more salty and had a ‘clean’ and long lasting (up to 10 minutes) hotness compared to the reference sample"}, {"measurement": "cooling effect compared to the reference sample", "setting": "[8]; 0.1 ppm in fondant with 2500 ppm menthol", "result": "more intense and long-lasting cooling effect compared to the reference sample"}, {"measurement": "taste of solution in water", "setting": "[1]; 1 ppm in water", "result": "strong tingling and burning taste"}]}
{"compound": "CCNC(=O)C1CC(C)CCC1C(C)C", "note": "(stereo not drawn) [WS-3, reference compound]", "values": [{"measurement": "cooling effect compared with the base toothpaste", "setting": "[9]; 10 ppm in toothpaste", "result": "in between sample A and the base in cooling strength"}]}
{"compound": "COc1cc(CNC(=S)Nc2ccc(C)cc2)ccc1O", "note": "[p-tolylvanillyithiourea]", "values": [{"measurement": "pungency", "setting": "[2]", "result": "property of pungency but to a lesser degree than capsaicin"}]}
{"compound": "o-tolylvanillylthiourea", "values": [{"measurement": "pungency", "setting": "[2]", "result": "property of pungency but to a lesser degree than capsaicin"}]}
{"compound": "phenylvanillylthiourea", "values": [{"measurement": "taste", "setting": "[2]", "result": "tasteless"}, {"measurement": "pungency", "setting": "[2]", "result": "property of pungency but to a lesser degree than capsaicin"}]}
